Tests used:
Settings in all cases: 48 h
NOMO1 [1] = assay: cell viability relative to DMSO control; higher = less cytotoxic
In short: (§1)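 Library compounds in DMSO were pin-dosed into 1536-well plates (5 μl) holding NOMO1 or SEM (500 cells/well) or P12-Ichikawa (1000 cells/well) leukemia cells, across an 11-point threefold series of 47 μM to 0.79 nM. Each cell line had been adapted for at least four passages in each medium. CellTiter-Glo One luminescence was read after 48 h at 37°C. Viability is the per-plate percentage relative to DMSO wells, with cell-free wells as background.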

P12-Ichikawa [2] = assay: as above
In short: as §1

SEM cells [3] = assay: as above
In short: as §1

NOMO1 [4] = assay: AUC of viability dose-response curve (% viability x log10 dose units); higher = less sensitive
In short: (§2)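 Viability of medium-adapted leukemia cells was measured by CellTiter-Glo One luminescence after 48 h at 37°C with library compounds in DMSO. Doses were 11 threefold steps from 47 μM to 0.79 nM, in 1536-well plates at 500 or 1000 cells/well. Signals were normalised per plate to DMSO and cell-free wells and fitted with a four-parameter log-logistic model on log10 dose. Area under the curve was integrated by trapezoidal rule, with curves exceeding full viability scaled and failed quality-control curves removed.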

P12-Ichikawa [5] = assay: as above
In short: as §2

SEM cells [6] = assay: as above
In short: as §2

Cc1cnc(NC(=O)Nc2cc(Br)c(C)cc2OC[C@@H]2CNCCO2)cn1
cell viability [%]
Settings | NOMO1 [1] | P12-Ichikawa [2] | SEM cells [3]
HPLM + 10% dialyzed FBS, 0.000781 µM | 122 | 119 | 95
HPLM + 10% dialyzed FBS, 0.00234 µM | 130 | 106 | 112
HPLM + 10% dialyzed FBS, 0.00702 µM | 107 | 112 | 110
HPLM + 10% dialyzed FBS, 0.0211 µM | 127 | 113 | 115
HPLM + 10% dialyzed FBS, 0.0632 µM | 130 | 120 | 117
HPLM + 10% dialyzed FBS, 0.19 µM | 120 | 106 | 107
HPLM + 10% dialyzed FBS, 0.569 µM | 95.1 | 104 | 65.8
HPLM + 10% dialyzed FBS, 1.71 µM | 69.5 | 100 | 31.8
HPLM + 10% dialyzed FBS, 5.12 µM | 30.9 | 76.7 | 22.6
HPLM + 10% dialyzed FBS, 15.4 µM | 35.5 | 93.8 | 24.4
HPLM + 10% dialyzed FBS, 46.1 µM | 26.6 | 48.4 | 22.5
RPMI 5 mM glucose + 10% FBS, 0.000781 µM | 108 | 108 | 103
RPMI 5 mM glucose + 10% FBS, 0.00234 µM | 120 | 109 | 114
RPMI 5 mM glucose + 10% FBS, 0.00702 µM | 107 | 105 | 78.6
RPMI 5 mM glucose + 10% FBS, 0.0211 µM | 107 | 111 | 105
RPMI 5 mM glucose + 10% FBS, 0.0632 µM | 119 | 118 | 109
RPMI 5 mM glucose + 10% FBS, 0.19 µM | 117 | 115 | 110
RPMI 5 mM glucose + 10% FBS, 0.569 µM | 101 | 111 | 91
RPMI 5 mM glucose + 10% FBS, 1.71 µM | 99 | 99.1 | 33
RPMI 5 mM glucose + 10% FBS, 5.12 µM | 51 | 67.9 | 27.5
RPMI 5 mM glucose + 10% FBS, 15.4 µM | 94.2 | 99.5 | 33.8
RPMI 5 mM glucose + 10% FBS, 46.1 µM | 22.5 | 34.3 | 17.5
RPMI 5 mM glucose + 10% dialyzed FBS, 0.000781 µM | 111 | 114 | 108
RPMI 5 mM glucose + 10% dialyzed FBS, 0.00234 µM | 106 | 120 | 101
RPMI 5 mM glucose + 10% dialyzed FBS, 0.00702 µM | 109 | 118 | 95.2
RPMI 5 mM glucose + 10% dialyzed FBS, 0.0211 µM | 116 | 121 | 106
RPMI 5 mM glucose + 10% dialyzed FBS, 0.0632 µM | 121 | 121 | 100
RPMI 5 mM glucose + 10% dialyzed FBS, 0.19 µM | 108 | 123 | 98.1
RPMI 5 mM glucose + 10% dialyzed FBS, 0.569 µM | 110 | 110 | 66.8
RPMI 5 mM glucose + 10% dialyzed FBS, 1.71 µM | 68.1 | 91 | 21.9
RPMI 5 mM glucose + 10% dialyzed FBS, 5.12 µM | 23.1 | 53.2 | 19.7
RPMI 5 mM glucose + 10% dialyzed FBS, 15.4 µM | 32.8 | 82.4 | 21.8
RPMI 5 mM glucose + 10% dialyzed FBS, 46.1 µM | 17.9 | 23.9 | 17.2

AUC of viability dose-response curve
Settings | NOMO1 [4] | P12-Ichikawa [5] | SEM cells [6]
HPLM + 10% dialyzed FBS | 355 | 424 | 328
RPMI 5 mM glucose + 10% FBS | 409 | 435 | 350
RPMI 5 mM glucose + 10% dialyzed FBS | 365 | 393 | 326

CC(=O)N[C@H]1[C@H](O[C@@H]2c3ccc(c(Cl)c3)Oc3cc4cc(c3O[C@@H]3O[C@H](CO)[C@@H](O)[C@H](O)[C@H]3NC(=O)CCCCCCCC(C)C)Oc3ccc(cc3Cl)C[C@H]3NC(=O)[C@H](N)c5ccc(O)c(c5)Oc5cc(O)cc(c5)[C@H](NC3=O)C(=O)N[C@H]4C(=O)N[C@H]3C(=O)N[C@@H]2C(=O)N[C@@H](C(=O)O)c2cc(O)cc(O[C@H]4O[C@H](CO)[C@@H](O)[C@H](O)[C@@H]4O)c2-c2cc3ccc2O)O[C@H](CO)[C@@H](O)[C@@H]1O
Settings | cell viability [%]
NOMO1 [1], RPMI 5 mM glucose + 10% dialyzed FBS, 0.000781 µM | 123
NOMO1 [1], RPMI 5 mM glucose + 10% dialyzed FBS, 0.00234 µM | 131
NOMO1 [1], RPMI 5 mM glucose + 10% dialyzed FBS, 0.00702 µM | 123
NOMO1 [1], RPMI 5 mM glucose + 10% dialyzed FBS, 0.0211 µM | 144
NOMO1 [1], RPMI 5 mM glucose + 10% dialyzed FBS, 0.0632 µM | 146
NOMO1 [1], RPMI 5 mM glucose + 10% dialyzed FBS, 0.19 µM | 151
NOMO1 [1], RPMI 5 mM glucose + 10% dialyzed FBS, 0.569 µM | 149
NOMO1 [1], RPMI 5 mM glucose + 10% dialyzed FBS, 1.71 µM | 162
NOMO1 [1], RPMI 5 mM glucose + 10% dialyzed FBS, 5.12 µM | 157
NOMO1 [1], RPMI 5 mM glucose + 10% dialyzed FBS, 15.4 µM | 157
NOMO1 [1], RPMI 5 mM glucose + 10% dialyzed FBS, 46.1 µM | 151
SEM cells [3], HPLM + 10% dialyzed FBS, 0.000781 µM | 96.3
SEM cells [3], HPLM + 10% dialyzed FBS, 0.00234 µM | 106
SEM cells [3], HPLM + 10% dialyzed FBS, 0.00702 µM | 106
SEM cells [3], HPLM + 10% dialyzed FBS, 0.0211 µM | 123
SEM cells [3], HPLM + 10% dialyzed FBS, 0.0632 µM | 127
SEM cells [3], HPLM + 10% dialyzed FBS, 0.19 µM | 121
SEM cells [3], HPLM + 10% dialyzed FBS, 0.569 µM | 127
SEM cells [3], HPLM + 10% dialyzed FBS, 1.71 µM | 140
SEM cells [3], HPLM + 10% dialyzed FBS, 5.12 µM | 117
SEM cells [3], HPLM + 10% dialyzed FBS, 15.4 µM | 98.6
SEM cells [3], HPLM + 10% dialyzed FBS, 46.1 µM | 126

AUC of viability dose-response curve
Settings | NOMO1 [4] | P12-Ichikawa [5] | SEM cells [6]
HPLM + 10% dialyzed FBS | 469 | 463 | 456
RPMI 5 mM glucose + 10% FBS | 470 | 466 | 464
RPMI 5 mM glucose + 10% dialyzed FBS | 448 | 468 | 471

Fc1ccc([C@@H]2CCNC[C@H]2COc2ccc3c(c2)OCO3)cc1
SEM cells [3], HPLM + 10% dialyzed FBS
Settings | cell viability [%]
0.000781 µM | 119
0.00234 µM | 124
0.00702 µM | 130
0.0211 µM | 141
0.0632 µM | 122
0.19 µM | 123
0.569 µM | 125
1.71 µM | 109
5.12 µM | 103
15.4 µM | 58.9
46.1 µM | 24.7

AUC of viability dose-response curve
Settings | NOMO1 [4] | P12-Ichikawa [5] | SEM cells [6]
HPLM + 10% dialyzed FBS | 447 | 396 | 417
RPMI 5 mM glucose + 10% FBS | 463 | 337 | 407
RPMI 5 mM glucose + 10% dialyzed FBS | 455 | 393 | 416

CC1COC2(CCN(CC2)C/3=N/C(=O)C4=CC(=CC(=C4S3)[N+]([O-])=O)C(F)(F)F)O1 (stereo not given)
SEM cells [3], HPLM + 10% dialyzed FBS
Settings | cell viability [%]
0.000781 µM | 97.9
0.00234 µM | 105
0.00702 µM | 122
0.0211 µM | 109
0.0632 µM | 93.9
0.19 µM | 126
0.569 µM | 133
1.71 µM | 122
5.12 µM | 117
15.4 µM | 82.3
46.1 µM | 78.3

AUC of viability dose-response curve
Settings | NOMO1 [4] | P12-Ichikawa [5] | SEM cells [6]
HPLM + 10% dialyzed FBS | 471 | 448 | 456
RPMI 5 mM glucose + 10% FBS | 473 | 442 | 441
RPMI 5 mM glucose + 10% dialyzed FBS | 467 | 434 | 446

NC/1=N/[C@]2(COC[C@H]2CS1)C3=CC(=CC=C3F)NC(=O)C4=NC=C(F)C=C4
cell viability [%], SEM cells [3]
Settings | HPLM + 10% dialyzed FBS | RPMI 5 mM glucose + 10% FBS
0.000781 µM | 90.8 | 119
0.00234 µM | 111 | 120
0.00702 µM | 131 | 129
0.0211 µM | 127 | 135
0.0632 µM | 132 | 138
0.19 µM | 140 | 149
0.569 µM | 130 | 127
1.71 µM | 135 | 141
5.12 µM | 136 | 155
15.4 µM | 147 | 29
46.1 µM | 110 | 7.7

AUC of viability dose-response curve
Settings | NOMO1 [4] | P12-Ichikawa [5] | SEM cells [6]
HPLM + 10% dialyzed FBS | 324 | 350 | 461
RPMI 5 mM glucose + 10% FBS | 302 | 348 | 417
RPMI 5 mM glucose + 10% dialyzed FBS | 313 | 374 | 471

— the supplement of paper PMC11451515
